pKi: −log10 of the molar value.
Legend:
SR = test: NCI single (10 µM) dose SRB screening, SR; format: cell-based, human; details: 10 µM single dose, Leukaemia
Protocol: (§1) Following NCI protocol, sixteen MPCs were screened for their potential in vitro anticancer effects against human 59 cancer cell panels including prostate, leukaemia melanoma, colon, breast, CNS, renal, NSCLC, and ovarian cancers by National Cancer Institute (USA)[30].
(§2) The antiproliferative activities of MPC 3 and MPCs 5a–o were first evaluated in a 10 µM dose assay, with SRB assay used to determine cell survival and proliferation. […] The results of the cell growth inhibitory activities for MPCs 5g and 5l towards the different treated tumour cell lines were presented as GI% and presented in Table 3.
(§3) The anticancer test was conducted using the methods of the Drug Evaluation Branch, National Cancer Institute, Bethesda, MD, using 59 human tumour cell lines derived from nine human tissues. The GI50, TGI, and LC50 dose-response parameters were calculated for each medication.

SF-539 = test: NCI single (10 µM) dose SRB screening, SF-539; format: cell-based, human; details: 10 µM single dose, SF-539, CNS cancer
Protocol: as §1, §2, §3

SK-OV-3 = test: NCI single (10 µM) dose SRB screening, SK-OV-3; format: cell-based, human; details: 10 µM single dose, SK-OV-3, Ovarian cancer
Protocol: as §1, §2, §3

HCC-2998 = test: NCI single (10 µM) dose SRB screening, HCC-2998; format: cell-based, human; details: 10 µM single dose, HCC-2998, Colon cancer
Protocol: as §1, §2, §3

MCF7 = test: NCI single (10 µM) dose SRB screening, MCF7; format: cell-based, human; details: 10 µM single dose, MCF7, Breast cancer
Protocol: as §1, §2, §3

HL-60(TB) = test: NCI single (10 µM) dose SRB screening, HL-60(TB); format: cell-based, human; details: 10 µM single dose, Leukaemia
Protocol: as §1, §2, §3

UACC-257 = test: NCI single (10 µM) dose SRB screening, UACC-257; format: cell-based, human; details: 10 µM single dose, UACC-257, Melanoma
Protocol: as §1, §2, §3

hCA XII = molecular target: T1, hCA XII (Homo sapiens, UniProt O43570); test: stopped-flow CO2 hydrase assay, hCA XII; format: biochemical; details: for Selectivity index (SI) (KI off-target CA/KI target CA) Towards hCA XII: ratio of KI for hCA I and II relative to hCA XII; for pKi: stopped-flow, incubation time of 6 h, mean of three assays, read-out: KI CA XII
T1 construct: made in house
T1 sequence (O43570 25-354): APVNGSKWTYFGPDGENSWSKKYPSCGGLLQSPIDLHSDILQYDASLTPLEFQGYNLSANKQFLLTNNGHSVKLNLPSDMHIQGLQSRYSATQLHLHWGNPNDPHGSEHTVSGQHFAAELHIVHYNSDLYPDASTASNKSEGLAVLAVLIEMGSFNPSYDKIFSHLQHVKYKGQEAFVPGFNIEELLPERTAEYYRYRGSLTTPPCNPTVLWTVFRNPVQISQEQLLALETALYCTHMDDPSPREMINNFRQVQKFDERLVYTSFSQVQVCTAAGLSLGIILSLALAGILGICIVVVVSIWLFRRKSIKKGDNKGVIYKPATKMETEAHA
Protocol: The newly synthesised MPCs (3 and 5a–o) were assessed for their CA inhibition activity employing the stopped-flow CO2 hydrase assay[29] for constitutional hCA (I/II) isoforms and cancer-linked hCA (IX/XII) isoforms.
The CA inhibition activity for the herein reported MPC derivatives was evaluated against the hCA isoforms I, II, IX, and XII using stopped-flow CO2 hydrase test[7]^,[33–36] (see the Supplementary Material).
Carbonic anhydrase inhibition assay
The carbonic anhydrase catalyzed CO2 hydration actions for all coumarin-based […]
Photophysics stopped-flow. The enzymes are recombinant proteins prepared in our lab. Phenol red (at a concentration of 0.2 mM) has been used as indicator, working at […]
mM Na2SO4 (for maintaining constant the ionic strength), following the initial rates of the CA-catalyzed CO2 hydration reaction for a period of 10-100 s. The CO2 concentrations ranged from 1.7 to 17 mM for the determination of the kinetic parameters and inhibition constants. For each inhibitor at least six traces of the initial 5-10% of the reaction have been used for determining the initial velocity. The uncatalyzed rates were determined in the same manner and subtracted from the total observed rates. Stock solutions of inhibitor (0.1 mM) were prepared in distilled-deionized water and dilutions up to 0.01 nM were done thereafter with the assay buffer. Inhibitor and enzyme solutions were preincubated together for 6 hrs. at room temperature prior to assay, in order to allow for the formation of the E-I complex. The inhibition constants were obtained by non-linear least-squares methods using PRISM 3 and the Cheng-Prusoff equation, and represent the mean from at least three different

MDA-MB-468 = test: NCI single (10 µM) dose SRB screening, MDA-MB-468; format: cell-based, human; details: 10 µM single dose, MDA-MB-468, Breast cancer
Protocol: as §1, §2, §3

BT-549 = test: NCI single (10 µM) dose SRB screening, BT-549; format: cell-based, human; details: 10 µM single dose, BT-549, Breast cancer
Protocol: as §1, §2, §3

NCI-H522 = test: NCI single (10 µM) dose SRB screening, NCI-H522; format: cell-based, human; details: 10 µM single dose, NCI-H522, NSC lung cancer
Protocol: as §1, §2, §3

CCRF-CEM = test: NCI single (10 µM) dose SRB screening, CCRF-CEM; format: cell-based, human; details: 10 µM single dose, Leukaemia
Protocol: as §1, §2, §3

KM 12 = test: NCI single (10 µM) dose SRB screening, KM 12; format: cell-based, human; details: 10 µM single dose, KM 12, Colon cancer
Protocol: as §1, §2, §3

OVCAR-3 = test: NCI single (10 µM) dose SRB screening, OVCAR-3; format: cell-based, human; details: 10 µM single dose, OVCAR-3, Ovarian cancer
Protocol: as §1, §2, §3

K-562 = test: NCI single (10 µM) dose SRB screening, K-562; format: cell-based, human; details: 10 µM single dose, K-562, Leukaemia
Protocol: as §1, §2, §3

SNB-75 = test: NCI single (10 µM) dose SRB screening, SNB-75; format: cell-based, human; details: 10 µM single dose, SNB-75, CNS cancer
Protocol: as §1, §2, §3

HOP-62 = test: NCI single (10 µM) dose SRB screening, HOP-62; format: cell-based, human; details: 10 µM single dose, HOP-62, NSC lung cancer
Protocol: as §1, §2, §3

NCI-H226 = test: NCI single (10 µM) dose SRB screening, NCI-H226; format: cell-based, human; details: 10 µM single dose, NCI-H226, NSC lung cancer
Protocol: as §1, §2, §3

OVCAR-8 = test: NCI single (10 µM) dose SRB screening, OVCAR-8; format: cell-based, human; details: 10 µM single dose, OVCAR-8, Ovarian cancer
Protocol: as §1, §2, §3

EKVX = test: NCI single (10 µM) dose SRB screening, EKVX; format: cell-based, human; details: 10 µM single dose, NSC lung cancer
Protocol: as §1, §2, §3

NCI/ADR-RES = test: NCI single (10 µM) dose SRB screening, NCI/ADR-RES; format: cell-based, human; details: 10 µM single dose, Ovarian cancer
Protocol: as §1, §2, §3

ACHN = test: NCI single (10 µM) dose SRB screening, ACHN; format: cell-based, human; details: 10 µM single dose, Renal cancer
Protocol: as §1, §2, §3

NCI-H322M = test: NCI single (10 µM) dose SRB screening, NCI-H322M; format: cell-based, human; details: 10 µM single dose, NSC lung cancer
Protocol: as §1, §2, §3

HCT-116 = test: NCI single (10 µM) dose SRB screening, HCT-116; format: cell-based, human; details: 10 µM single dose, HCT-116, Colon cancer
Protocol: as §1, §2, §3

IGROV1 = test: NCI single (10 µM) dose SRB screening, IGROV1; format: cell-based, human; details: 10 µM single dose, IGROV1, Ovarian cancer
Protocol: as §1, §2, §3

MDA-MB-435 = test: NCI single (10 µM) dose SRB screening, MDA-MB-435; format: cell-based, human; details: 10 µM single dose, MDA-MB-435, Melanoma
Protocol: as §1, §2, §3

PC-3 = test: NCI single (10 µM) dose SRB screening, PC-3; format: cell-based, human; details: 10 µM single dose, PC-3, Prostate cancer
Protocol: as §1, §2, §3

NCI-H460 = test: NCI single (10 µM) dose SRB screening, NCI-H460; format: cell-based, human; details: 10 µM single dose, NCI-H460, NSC lung cancer
Protocol: as §1, §2, §3

Cc1nc(-c2cc3ccccc3oc2=O)ccc1C(=O)/C=C/c1ccc(N2CCOCC2)cc1 [Compound 5g, 3-(6-Methyl-5-[(2E)-3-[4-(morpholin-4-yl)phenyl]prop-2-enoyl]pyridin-2-yl)-2H-chromen-2-one]
GI % (SR): 73%
GI % (SF-539): 54%
GI % (SK-OV-3): – (Only GI % more than 20% are displayed.)
GI % (HCC-2998): – (Only GI % more than 20% are displayed.)
GI % (MCF7): 48%
GI % (HL-60(TB)): 61%
GI % (UACC-257): – (Only GI % more than 20% are displayed.)
Selectivity index (SI) (KI off-target CA/KI target CA) Towards hCA XII (hCA XII): >55.56
pKi (hCA XII): 5.74
GI % (MDA-MB-468): 54%
GI % (BT-549): 23%
GI % (NCI-H522): 38%
GI % (CCRF-CEM): 27%
GI % (KM 12): 31%
GI % (OVCAR-3): – (Only GI % more than 20% are displayed.)
GI % (K-562): 62%
GI % (SNB-75): 41%
GI % (HOP-62): – (Only GI % more than 20% are displayed.)
GI % (NCI-H226): – (Only GI % more than 20% are displayed.)
GI % (OVCAR-8): – (Only GI % more than 20% are displayed.)
GI % (EKVX): – (Only GI % more than 20% are displayed.)
GI % (NCI/ADR-RES): 32%
GI % (ACHN): 29%
GI % (NCI-H322M): – (Only GI % more than 20% are displayed.)
GI % (HCT-116): – (Only GI % more than 20% are displayed.)
GI % (IGROV1): – (Only GI % more than 20% are displayed.)
GI % (MDA-MB-435): 121%
GI % (PC-3): – (Only GI % more than 20% are displayed.)
GI % (NCI-H460): – (Only GI % more than 20% are displayed.)

Cc1nc(-c2cc3ccccc3oc2=O)ccc1C(=O)/C=C/c1ccccn1 [Compound 5l, 3-(6-Methyl-5-[(2E)-3-(pyridin-2-yl)prop-2-enoyl]pyridin-2-yl)-2H-chromen-2-one]
GI % (SR): 112%
GI % (SF-539): 97%
GI % (SK-OV-3): – (Only GI % more than 20% are displayed.)
GI % (HCC-2998): 33%
GI % (MCF7): 91%
GI % (HL-60(TB)): 67%
GI % (UACC-257): – (Only GI % more than 20% are displayed.)
Selectivity index (SI) (KI off-target CA/KI target CA) Towards hCA XII (hCA XII): >108.70
pKi (hCA XII): 6.04
GI % (MDA-MB-468): 39%
GI % (BT-549): – (Only GI % more than 20% are displayed.)
GI % (NCI-H522): 41%
GI % (CCRF-CEM): 93%
GI % (KM 12): 93%
GI % (OVCAR-3): 53%
GI % (K-562): 92%
GI % (SNB-75): 43%
GI % (HOP-62): – (Only GI % more than 20% are displayed.)
GI % (NCI-H226): – (Only GI % more than 20% are displayed.)
GI % (OVCAR-8): 30%
GI % (EKVX): – (Only GI % more than 20% are displayed.)
GI % (NCI/ADR-RES): 22%
GI % (ACHN): 41%
GI % (NCI-H322M): – (Only GI % more than 20% are displayed.)
GI % (HCT-116): 121%
GI % (IGROV1): 93%
GI % (MDA-MB-435): 29%
GI % (PC-3): 31%
GI % (NCI-H460): 58%
